Usually kinetic solubility stands for solubility judged after dilution from a stock solution rather than from solid.

This note sets out measurements from PubChem BioAssay AID1996.

≈ marks a conversion by molar mass, not a printed value.

For this series the following is noted: buffer; pH 7.4; 200.0 µM.
Take `C/C(=N\NC(=O)CCC(=O)NCc1ccccc1)c1ccco1`: the kinetic solubility is over 47 µg/mL. In turn, `Cc1cc(NC(=O)c2ccc(C)c(C)c2)no1` yielded a kinetic solubility of 3.6 µg/mL (≈ 15.6 µM). In turn, `Cc1ccc(-n2c(O)c(C=NCc3ccco3)c(=O)[nH]c2=S)cc1C` yielded a solubility (kinetic) of 11.1 µg/mL (≈ 31.2 µM). On to `CN(C)C(=O)CCCCCCCCC(=O)N(C)C`, for which the kinetic solubility was over 38.5 µg/mL. On to `Cc1[nH]c2c(C)cccc2c1CC(=O)O`, for which the solubility (kinetic) was over 30.5 µg/mL. In turn, `O=C(OCN1C(=O)c2ccccc2C1=O)c1ccc(Cl)nc1` showed a solubility (kinetic) of 14.3 µg/mL (≈ 45.2 µM).

On to `Clc1ccc(-c2csc(N3CCCCCC3)n2)cc1`, for which the solubility (kinetic) was under 0.3 µg/mL. `Oc1ccc(Cl)cc1C=Nc1ccc2c3c(cccc13)CC2` came in with a kinetic solubility of over 46.2 µg/mL.

`CCC(=NCCCn1ccnc1)c1c(O)n(-c2ccccc2)c(=O)[nH]c1=O` returned a solubility (kinetic) of over 55.1 µg/mL. Regarding `COc1ccc2cc(C(=O)O)n(CC(=O)c3ccccc3)c2c1`, the kinetic solubility is over 46.4 µg/mL.

In turn, `CCOC(=O)c1c(C)oc2c1c(C=NC1CCS(=O)(=O)C1)c(O)c1ccccc12` (stereo unspecified) displayed a kinetic solubility of under 0.9 µg/mL. Compound `COc1ccc(S(=O)(=O)NC(C)C(=O)NC2CC2)cc1C` (stereo unspecified) returned a kinetic solubility of over 46.9 µg/mL. With `CCCCC(=O)Nc1cccc(NC(=O)c2cccnc2Cl)c1`, the solubility (kinetic) is over 49.8 µg/mL.

`COC(=O)c1ccc(=O)n(CC(=O)c2ccc(Cl)cc2)c1`: the solubility (kinetic) was over 45.9 µg/mL.

Compound `O=C(Cn1cncn1)N/N=C/c1ccccc1O` displayed a solubility (kinetic) of over 36.8 µg/mL. `CC(C)c1ccc(NC(=O)NCc2ccccn2)cc1` gave a kinetic solubility of over 40.4 µg/mL. With `CCOc1ccc(CC(=O)Nc2nccs2)cc1OCC`, the kinetic solubility worked out at 31.7 µg/mL (≈ 103 µM). In the case of `CSc1nc(N2CCN(C)CC2)c2c(c1C#N)CC(C)(C)OC2`, the solubility (kinetic) is over 49.9 µg/mL. Compound `O=C(NC(=S)NC1CCCC1)c1ccccc1` registered a solubility (kinetic) of 16.9 µg/mL (≈ 68 µM). The compound `Nn1c(SCC(=O)NC2CCCc3ccccc32)nnc1C1CC1` (stereo unspecified) showed a kinetic solubility of over 51.5 µg/mL. As for `COc1cc(OC)c(S(=O)(=O)NC(C)C)cc1C(=O)O`, the solubility (kinetic) was over 45.5 µg/mL. For `COc1ccc(CCNC(=O)COC(=O)c2cccn2C)cc1`, the kinetic solubility is over 47.5 µg/mL.

On to `Cc1cc(C)c2nc(N(CCN(C)C)C(=O)c3ccc4ccccc4c3)sc2c1.Cl`, for which the kinetic solubility is 2.3 µg/mL.

Turning to `Cc1ccccc1-n1c(-c2ccoc2)nc2ccccc2c1=O`, the kinetic solubility was over 45.3 µg/mL.

In the case of `C/C(=N\Nc1ccc2nncn2n1)c1cccs1`, the solubility (kinetic) was over 38.7 µg/mL. Compound `O=C1[C@@H]2CSCN2C(=O)CN1Cc1ccc(F)cc1` yielded a solubility (kinetic) of over 42 µg/mL. In the case of `CCN(CC)c1ccc(C(=S)NC2CCCCC2)cc1`, the solubility (kinetic) was 2 µg/mL (≈ 6.89 µM). In the case of `O=C(NCCc1ccc(F)cc1)Nc1ccccc1` it was 6.1 µg/mL (≈ 23.6 µM); in that of `COc1ccccc1CNC(=O)c1ccc(NC(=O)CC2SC(N3CCCC3)=NC2=O)cc1` (stereo unspecified), 9.4 µg/mL (≈ 20.1 µM). `CN1CCCN(C(=O)COc2ccccc2Br)CC1` displayed a kinetic solubility of over 49.1 µg/mL. In the case of `Cn1c(CN2CCN(S(C)(=O)=O)CC2)nc2cc([N+](=O)[O-])ccc21` it was over 53 µg/mL; in that of `O=C1C2C3CCC(O3)C2C(=O)N1c1cccc(F)c1` (stereo unspecified), 39.2 µg/mL (≈ 150 µM); in that of `O=C(CN1C(=O)/C(=C2/SC(=S)N(CCS(=O)(=O)O)C2=O)c2ccccc21)Nc1cccc(Br)c1`, 14.3 µg/mL (≈ 24.6 µM). In the case of `O=S(=O)(c1ccc(F)cc1)N1CCN(c2ccc(F)cc2)CC1` it was 0.5 µg/mL (≈ 1.48 µM); in that of `COc1ccc(CCC(=O)N2CCCc3ccccc32)cc1`, 39.1 µg/mL (≈ 132 µM).

In the case of `Cc1cc(C)cc(C(=O)NC2CC(C)(C)NC(C)(C)C2)c1`, the kinetic solubility is over 43.3 µg/mL. With `Cc1ccc(C2CC(=O)C=C(NCc3ccccc3)C2)cc1` (stereo unspecified), the kinetic solubility is 12.7 µg/mL (≈ 43.6 µM). On to `COC(=O)c1ccc(/C=C/C(=O)OCC(=O)Nc2cc(C)on2)cc1`, for which the solubility (kinetic) was 3 µg/mL (≈ 8.71 µM). With `CC(=O)Nc1ccc(Sc2ccccc2C(=O)O)c(C(=O)O)c1`, the solubility (kinetic) worked out at 42.3 µg/mL (≈ 128 µM). In the case of `CC(=O)Nc1ccc(S(=O)(=O)Nc2ccc(C)c([N+](=O)[O-])c2)cc1`, the kinetic solubility is over 52.4 µg/mL.

The compound `CSc1cccc(NC(=S)NC(=O)c2cccnc2)c1` came in with a kinetic solubility of 5.1 µg/mL (≈ 16.8 µM).

With `CC(NC(=O)CSc1nc2ccccc2n1C)c1ccccc1` (stereo unspecified), the kinetic solubility was over 48.8 µg/mL. Consider `CSc1ccccc1C(=O)C1CCCN(S(=O)(=O)N(C)C)C1` (stereo unspecified), for which the kinetic solubility is over 51.4 µg/mL. On to `Cc1nn(C(=O)N(C)C)c(C)c1CN1C(=O)c2ccccc2C1=O`, for which the kinetic solubility is over 49 µg/mL. Consider `CCn1c(=O)c(C(=O)NCCCc2ccccc2)c(O)c2ccccc21`, for which the kinetic solubility was under 0.4 µg/mL. `CC(C)[C@H](NC(=O)c1ccccc1)C(=O)OCC(=O)Nc1ccc(S(=O)(=O)N2CCOCC2)cc1` showed a solubility (kinetic) of 3 µg/mL (≈ 5.96 µM). `Cl.O=[N+]([O-])c1ccc(N2CCCNCC2)c2ncccc12`: the solubility (kinetic) was 36.7 µg/mL.

In turn, `O=C1CC(N2CCSCC2)C(=O)N1c1ccc(Br)cc1` (stereo unspecified) came in with a kinetic solubility of over 53.3 µg/mL. Then `Cn1c(O)c(/C=N/NC(=O)c2ccncc2)c(=O)n(C)c1=S`, with over 47.9 µg/mL; and `NCCNC(=O)c1c(NC(=O)c2ccccc2)sc2c1CCCC2`, with 41.1 µg/mL (≈ 120 µM). Consider `Cc1ccc(CC(=O)O/N=C(\N)c2ccncc2)cc1`, for which the kinetic solubility came out at 18.1 µg/mL (≈ 67.2 µM).
